Experimental data reported in ChEMBL document CHEMBL1201862, “PubChem BioAssay data set” (2004).
“And” between values parts separate entries of the source, which are not always exact repeats. Equal entries are not always repeated.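 48-hour exposure; five concentrations; linearly interpolated endpoints. GI50 = concentration required for 50% inhibition of growth.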 The source made the active and inactive calls. Cut-off read from the data, not from the text of the source: active = GI50 up to about 1.1 µM and inactive = higher.

Assays:
Test in all cases: inhibition of tumour cell growth, NCI panel, 48 h
SF-268 = tested on: SF-268
786-0 = tested on: 786-0
EKVX = tested on: EKVX
HCC 2998 = tested on: HCC 2998
SK-MEL-5 = tested on: SK-MEL-5
MDA-N = tested on: MDA-N
A549 = tested on: A549
NCI/ADR-RES = tested on: NCI/ADR-RES
SNB-19 = tested on: SNB-19
Malme-3M = tested on: Malme-3M
NCI-H226 = tested on: NCI-H226
HCT-15 = tested on: HCT-15
SK-MEL-2 = tested on: SK-MEL-2
A498 = tested on: A498
SK-OV-3 = tested on: SK-OV-3
U-251 = tested on: U-251
MDA-MB-435 = tested on: MDA-MB-435
SN12C = tested on: SN12C
SK-MEL-28 = tested on: SK-MEL-28
MOLT-4 = tested on: MOLT-4

Compound	GI50 (SF-268)	GI50 (786-0)	GI50 (EKVX)	GI50 (HCC 2998)	GI50 (SK-MEL-5)	GI50 (MDA-N)	GI50 (A549)	GI50 (NCI/ADR-RES)	GI50 (SNB-19)	GI50 (Malme-3M)	GI50 (NCI-H226)	GI50 (HCT-15)	GI50 (SK-MEL-2)	GI50 (A498)	GI50 (SK-OV-3)	GI50 (U-251)	GI50 (MDA-MB-435)	GI50 (SN12C)	GI50 (SK-MEL-28)	GI50 (MOLT-4)
CC1OC(OC2C(OC(=O)[C@]34CCC(C)(C)C[C@H]3C3=CC[C@@H]5[C@@]6(C)CC[C@H](OC7OC(CO)C(O)C(O)C7OC7OC(CO)C(O)C(O)C7O)C(C)(C)[C@@H]6CC[C@@]5(C)[C@]3(C)CC4)OCC(O)C2O)C(O)C(O)C1OC1OCC(O)C(OC2OCC(O)C(O)C2O)C1O (stereo partly specified)	6.03 µM (inactive) and 5.07 µM (inactive)	6.67 µM (inactive) and 5.46 µM (inactive)	2.44 µM (inactive) and 2.97 µM (inactive)	2 µM (inactive) and 1.76 µM (inactive)	2.82 µM (inactive) and 3.24 µM (inactive)	1.64 µM (inactive) and 1.88 µM (inactive)	3.01 µM (inactive) and 3.03 µM (inactive)	5.81 µM (inactive) and 3.99 µM (inactive)	7.89 µM (inactive) and 7.41 µM (inactive)	2.49 µM (inactive) and 2.52 µM (inactive)	3.57 µM (inactive) and 3.8 µM (inactive)	12.9 µM and 13 µM	3.01 µM (inactive) and 2.9 µM (inactive)	2.17 µM (inactive) and 2.02 µM (inactive)	12.6 µM (inactive) and 13.1 µM (inactive)	6.76 µM (inactive) and 9.84 µM (inactive)	1.67 µM (inactive) and 1.94 µM (inactive)	2.15 µM (inactive)	2.09 µM (inactive) and 2.18 µM (inactive)	
N#CCCC1(CCC#N)CCCCCCCCC(CCC#N)(CCC#N)C(O)C1O (stereo unspecified)	37.8 µM (inactive)	> 100 µM (inactive)	> 100 µM (inactive)	> 100 µM (inactive)	> 100 µM (inactive)	> 100 µM (inactive)	73.6 µM (inactive)	> 100 µM (inactive)	66.7 µM (inactive)	> 100 µM (inactive)	> 100 µM (inactive)	> 100 µM	> 100 µM (inactive)	94.6 µM (inactive)	> 100 µM (inactive)	46.7 µM (inactive)	> 100 µM (inactive)	> 100 µM (inactive)	> 100 µM (inactive)	
O=C1/C(=C\c2cccs2)Oc2ccccc21	51.1 µM (inactive)	77.6 µM (inactive)	25.9 µM (inactive)	64.6 µM (inactive)	51.6 µM (inactive)	> 100 µM (inactive)	56.9 µM (inactive)	54.7 µM (inactive)	75.3 µM (inactive)		58.1 µM (inactive)	36.6 µM	> 100 µM (inactive)	42.3 µM (inactive)	38 µM (inactive)	51.6 µM (inactive)	98.6 µM (inactive)	> 100 µM (inactive)	> 100 µM (inactive)	33.9 µM (inactive)
NC1=C(c2nc(-c3ccccc3)cs2)C(c2ccco2)c2c(c3ccccc3oc2=O)O1 (stereo unspecified)	> 100 µM (inactive)	> 100 µM (inactive)	> 100 µM (inactive)	> 100 µM (inactive)	> 100 µM (inactive)	> 100 µM (inactive)	> 100 µM (inactive)	> 100 µM (inactive)	> 100 µM (inactive)	> 100 µM (inactive)	38.2 µM (inactive)	> 100 µM	> 100 µM (inactive)	> 100 µM (inactive)	> 100 µM (inactive)	> 100 µM (inactive)	> 100 µM (inactive)	> 100 µM (inactive)	> 100 µM (inactive)	
CC(=O)Oc1ccc(-c2cc3ccccc3oc2=O)cc1OC(C)=O	27.9 µM (inactive)	21.7 µM (inactive)	21.8 µM (inactive)	18.7 µM (inactive)		25.8 µM (inactive)	14.8 µM (inactive)	21.3 µM (inactive)	31.6 µM (inactive)	51.4 µM (inactive)	53.1 µM (inactive)	10.7 µM	38.5 µM (inactive)	35.6 µM (inactive)		32.7 µM (inactive)	27.1 µM (inactive)	53.7 µM (inactive)	43.5 µM (inactive)	3.47 µM (inactive)
COc1cccc(N(CN2C(=O)CCC2OC)C(C)=O)c1 (stereo unspecified)	> 100 µM (inactive)	> 100 µM (inactive)		> 100 µM (inactive)	> 100 µM (inactive)	> 100 µM (inactive)	> 100 µM (inactive)	> 100 µM (inactive)	> 100 µM (inactive)		> 100 µM (inactive)	> 100 µM	> 100 µM (inactive)	> 100 µM (inactive)	> 100 µM (inactive)	> 100 µM (inactive)	> 100 µM (inactive)	> 100 µM (inactive)	> 100 µM (inactive)	> 100 µM (inactive)
O=C(Cc1nccc2c1[nH]c1ccccc12)OC1C#CCSCC#C/C=C\1 (stereo unspecified)	> 100 µM (inactive)	> 100 µM (inactive)	64.4 µM (inactive)	> 100 µM (inactive)	> 100 µM (inactive)	> 100 µM (inactive)	> 100 µM (inactive)	> 100 µM (inactive)	> 100 µM (inactive)	> 100 µM (inactive)	> 100 µM (inactive)	> 100 µM		78.5 µM (inactive)	> 100 µM (inactive)	> 100 µM (inactive)	75.7 µM (inactive)	> 100 µM (inactive)	> 100 µM (inactive)	39.5 µM (inactive)
O=c1c(Br)cc2c(-c3ccccc3)c3cc(Br)c(O)c(Br)c3oc-2c1Br	> 100 µM (inactive)	> 100 µM (inactive)	> 100 µM (inactive)	83.8 µM (inactive)	> 100 µM (inactive)	> 100 µM (inactive)	> 100 µM (inactive)	> 100 µM (inactive)	> 100 µM (inactive)	> 100 µM (inactive)	> 100 µM (inactive)	56 µM		27.3 µM (inactive)	48.4 µM (inactive)	> 100 µM (inactive)	> 100 µM (inactive)	> 100 µM (inactive)	> 100 µM (inactive)	29.1 µM (inactive)
CCN1CCC(O)(/C=C/c2ccc(OC)cc2)C(C(=O)/C=C/c2ccc(OC)cc2)C1 (stereo unspecified)	13.8 µM (inactive)	4.03 µM (inactive)	13.6 µM (inactive)	14.9 µM (inactive)		7.5 µM (inactive)	16.6 µM (inactive)	6.15 µM (inactive)	15.1 µM (inactive)	17.1 µM (inactive)	16 µM (inactive)	> 10 µM		13.3 µM (inactive)	10.6 µM (inactive)	6.34 µM (inactive)	6.05 µM (inactive)	14.8 µM (inactive)	12 µM (inactive)	2.72 µM (inactive)
CC1(C)OC[C@H](COCOP2(=O)Oc3ccc4ccccc4c3-c3c(ccc4ccccc34)O2)O1	16 µM (inactive)	35.5 µM (inactive)	> 10 µM (inactive)	16.9 µM (inactive)	24.4 µM (inactive)	13.5 µM (inactive)	21.5 µM (inactive)	18.3 µM (inactive)	19.1 µM (inactive)	21.3 µM (inactive)	18.7 µM (inactive)	15.3 µM		16.9 µM (inactive)	23.8 µM (inactive)	18 µM (inactive)	13.7 µM (inactive)	16.4 µM (inactive)	13.3 µM (inactive)	15 µM (inactive)
O=C1C(Cl)C2(CC(/C=C/c3ccccc3)=NN2c2cccc(S(=O)(=O)O)c2)N1c1nc2ccccc2s1 (stereo unspecified)	20 µM (inactive)	17.3 µM (inactive)	19.2 µM (inactive)	14.4 µM (inactive)	15.5 µM (inactive)	24.2 µM (inactive)	15.3 µM (inactive)	28.2 µM (inactive)	25.2 µM (inactive)	17.3 µM (inactive)	17.7 µM (inactive)	15.9 µM	17.3 µM (inactive)	19.3 µM (inactive)		14.7 µM (inactive)	21.4 µM (inactive)	17.2 µM (inactive)	44.8 µM (inactive)	20.7 µM (inactive)
CSc1ncnc2c1ncn2CCC(=O)OC(C)(C)C	> 100 µM (inactive)	> 100 µM (inactive)	> 100 µM (inactive)	> 100 µM (inactive)	> 100 µM (inactive)	> 100 µM (inactive)	> 100 µM (inactive)	> 100 µM (inactive)	> 100 µM (inactive)	> 100 µM (inactive)	> 100 µM (inactive)			> 100 µM (inactive)	> 100 µM (inactive)		> 100 µM (inactive)	> 100 µM (inactive)	> 100 µM (inactive)	> 100 µM (inactive)
CN(C)CC1=Nc2cccc3cccc(c23)N1	18.9 µM (inactive)	12.4 µM (inactive)	17.2 µM (inactive)	17.2 µM (inactive)	15.4 µM (inactive)	18.4 µM (inactive)	67.8 µM (inactive)	33.7 µM (inactive)	> 100 µM (inactive)	22 µM (inactive)	20.3 µM (inactive)	23.8 µM	17.4 µM (inactive)	14.9 µM (inactive)	> 100 µM (inactive)	16.8 µM (inactive)	20.2 µM (inactive)	16.8 µM (inactive)	22.1 µM (inactive)	
O=c1c(-c2ccc(Cl)cc2)nnc2n(Cc3ccccc3)c3ccccc3n12	23.3 µM (inactive)	14.9 µM (inactive)	38.4 µM (inactive)	> 100 µM (inactive)	41.1 µM (inactive)	> 100 µM (inactive)	25.5 µM (inactive)	52.7 µM (inactive)	17.7 µM (inactive)	39.8 µM (inactive)	23.7 µM (inactive)	> 100 µM	44.2 µM (inactive)	23 µM (inactive)		23.7 µM (inactive)	4.28 µM (inactive)	82.2 µM (inactive)	51.6 µM (inactive)	66.7 µM (inactive)
